System: HT-29 cells
Test: HT29 Cells 0FBS Assay In Vitro (TNF-α/SMAC mimetic/zVAD-FMK induced necroptosis, CellTiter-Glo cell viability)
Format: cell-based
Details: Homo sapiens; HT-29 cells, FBS free medium, TNF-α (10 ng/ml), SMAC mimetic (6 uM), zVAD-FMK (10 μM), 20 hours; geometric mean EC50; read-out: Cell activity (EC50) of Compounds 117-281
How it was run: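 HT-29 cells (5,000/well, seeded overnight) in serum-free McCoy's 5A were stimulated with TNF-α 10 ng/ml, SMAC mimetic 6 μM and zVAD-FMK 10 μM to induce necroptosis. Compound added as 10-point 3-fold series for 20 h at 37° C. CellTiter-Glo luminescence gives viability; EC50 is geometric mean of duplicate dose-responses.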

Compound | EC50 [µM]
Cc1nn(-c2cc(OC3CN(C(=O)N4N=CC[C@H]4c4cc(F)cc(F)c4)C3)c(F)cn2)c(C)c1S(=O)(=O)NC1CCC1 [compound 235, (S)—N-cyclobutyl-1-(4-((1-(5-(3,5-difluorophenyl)-4,5-dihydro-1H-pyrazole-1-carbonyl)azetidin-3-yl)oxy)-5-fluoropyridin-2-yl)-3,5-dimethyl-1H-pyrazole-4-sulfonamide] | 0.0001 to 0.1
Cc1nn(-c2cc(OC3CN(C(=O)N4N=CC[C@H]4c4cc(F)cc(F)c4)C3)c(F)cn2)c(C)c1S(=O)(=O)Cc1ccccc1 [compound 236, (S)-(3-((2-(4-(benzylsulfonyl)-3,5-dimethyl-1H-pyrazol-1-yl)-5-fluoropyridin-4-yl)oxy)azetidin-1-yl)(5-(3,5-difluorophenyl)-4,5-dihydro-1H-pyrazol-1-yl)methanone] | 0.0001 to 0.1
Cc1c(-c2cc(OC3CN(C(=O)N4N=CC[C@H]4c4cc(F)cc(F)c4)C3)c(F)cn2)nn(C)c1C#N [compound 237, (S)-3-(4-((1-(5-(3,5-difluorophenyl)-4,5-dihydro-1H-pyrazole-1-carbonyl)azetidin-3-yl)oxy)-5-fluoropyridin-2-yl)-1,4-dimethyl-1H-pyrazole-5-carbonitrile] | 0.0001 to 0.1
Cc1cn(C)c(=O)n1-c1cc(OC2CN(C(=O)N3N=CC[C@H]3c3cc(F)cc(F)c3)C2)c(F)cn1 [compound 238, (S)-3-(4-((1-(5-(3,5-difluorophenyl)-4,5-dihydro-1H-pyrazole-1-carbonyl)azetidin-3-yl)oxy)-5-fluoropyridin-2-yl)-1,4-dimethyl-1,3-dihydro-2H-imidazol-2-one] | 0.1 to 1
Cc1nn(-c2cc(OC3CN(C(=O)N4N=CC[C@H]4c4cc(F)cc(F)c4)C3)c(F)cn2)c(C)c1CC(=O)N(C)C [compound 239, (S)-2-(1-(4-((1-(5-(3,5-difluorophenyl)-4,5-dihydro-1H-pyrazole-1-carbonyl)azetidin-3-yl)oxy)-5-fluoropyridin-2-yl)-3,5-dimethyl-1H-pyrazol-4-yl)-N,N-dimethylacetamide] | 0.0001 to 0.1
Cc1nn(-c2cc(OC3CN(C(=O)N4N=CC[C@H]4c4cc(F)cc(F)c4)C3)c(F)cn2)c(C)c1S(=O)(=O)NC1COC1 [compound 240] | 0.0001 to 0.1
Cc1nn(-c2cc(OC3CN(C(=O)N4N=CC[C@H]4c4cc(F)cc(F)c4)C3)c(F)cn2)c(C)c1S(=O)(=O)NC1CCOCC1 [compound 241, (S)-1-(4-((1-(5-(3,5-difluorophenyl)-4,5-dihydro-1H-pyrazole-1-carbonyl)azetidin-3-yl)oxy)-5-fluoropyridin-2-yl)-3,5-dimethyl-N-(tetrahydro-2H-pyran-4-yl)-1H-pyrazole-4-sulfonamide] | 0.0001 to 0.1
Cc1nn(-c2cc(OC3CN(C(=O)N4N=CC[C@H]4c4cc(F)cc(F)c4)C3)c(F)cn2)c(C)c1S(=O)(=O)NC1CCCCC1 [compound 242, (S)—N-cyclohexyl-1-(4-((1-(5-(3,5-difluorophenyl)-4,5-dihydro-1H-pyrazole-1-carbonyl)azetidin-3-yl)oxy)-5-fluoropyridin-2-yl)-3,5-dimethyl-1H-pyrazole-4-sulfonamide] | 0.0001 to 0.1
Cc1nn(-c2cc(OC3CN(C(=O)N4N=CC[C@H]4c4cc(F)cc(F)c4)C3)c(F)cn2)c(C)c1S(=O)(=O)Nc1ccccc1 [compound 243, (S)-1-(4-((1-(5-(3,5-difluorophenyl)-4,5-dihydro-1H-pyrazole-1-carbonyl)azetidin-3-yl)oxy)-5-fluoropyridin-2-yl)-3,5-dimethyl-N-phenyl-1H-pyrazole-4-sulfonamide] | 0.0001 to 0.1
Cc1nn(-c2cc(OC3CN(C(=O)N4N=CC[C@H]4c4cc(F)cc(F)c4)C3)c(F)cn2)c(C)c1S(=O)(=O)NCCO [compound 244, (S)-1-(4-((1-(5-(3,5-difluorophenyl)-4,5-dihydro-1H-pyrazole-1-carbonyl)azetidin-3-yl)oxy)-5-fluoropyridin-2-yl)-N-(2-hydroxyethyl)-3,5-dimethyl-1H-pyrazole-4-sulfonamide] | 0.0001 to 0.1
Cc1c(-c2cc(OC3CN(C(=O)N4N=CC[C@H]4c4cc(F)cc(F)c4)C3)c(F)cn2)nn(C)c1C(=O)O [compound 245, (S)-3-(4-((1-(5-(3,5-difluorophenyl)-4,5-dihydro-1H-pyrazole-1-carbonyl)azetidin-3-yl)oxy)-5-fluoropyridin-2-yl)-1,4-dimethyl-1H-pyrazole-5-carboxylic acid] | 0.0001 to 0.1
CNC(=O)c1c(C)c(-c2cc(OC3CN(C(=O)N4N=CC[C@H]4c4cc(F)cc(F)c4)C3)c(F)cn2)nn1C [compound 246, (S)-3-(4-((1-(5-(3,5-difluorophenyl)-4,5-dihydro-1H-pyrazole-1-carbonyl)azetidin-3-yl)oxy)-5-fluoropyridin-2-yl)-N,1,4-trimethyl-1H-pyrazole-5-carboxamide] | 0.0001 to 0.1
Cc1c(-c2cc(OC3CN(C(=O)N4N=CC[C@H]4c4cc(F)cc(F)c4)C3)c(F)cn2)nn(C)c1C(=O)NC1CCOCC1 [compound 247, (S)-3-(4-((1-(5-(3,5-difluorophenyl)-4,5-dihydro-1H-pyrazole-1-carbonyl)azetidin-3-yl)oxy)-5-fluoropyridin-2-yl)-1,4-dimethyl-N-(tetrahydro-2H-pyran-4-yl)-1H-pyrazole-5-carboxamide] | 0.0001 to 0.1
CONS(=O)(=O)c1c(C)nn(-c2cc(OC3CN(C(=O)N4N=CC[C@H]4c4cc(F)cc(F)c4)C3)c(F)cn2)c1C [compound 248, (S)-1-(4-((1-(5-(3,5-difluorophenyl)-4,5-dihydro-1H-pyrazole-1-carbonyl)azetidin-3-yl)oxy)-5-fluoropyridin-2-yl)-N-methoxy-3,5-dimethyl-1H-pyrazole-4-sulfonamide] | 0.0001 to 0.1
Cc1nn(-c2cc(OC3CN(C(=O)N4N=CC[C@H]4c4cc(F)cc(F)c4)C3)c(F)cn2)c(C)c1C(=O)NC1CCC1 [compound 249, (S)—N-cyclobutyl-1-(4-((1-(5-(3,5-difluorophenyl)-4,5-dihydro-1H-pyrazole-1-carbonyl)azetidin-3-yl)oxy)-5-fluoropyridin-2-yl)-3,5-dimethyl-1H-pyrazole-4-carboxamide] | 0.0001 to 0.1
Cn1nccc1-c1cc(OC2CN(C(=O)N3N=CCC3c3cc(F)cc(F)c3)C2)c(F)cn1 (stereo not drawn) [compound 250, (5-(3,5-difluorophenyl)-4,5-dihydro-1H-pyrazol-1-yl)(3-((5-fluoro-2-(1-methyl-1H-pyrazol-5-yl)pyridin-4-yl)oxy)azetidin-1-yl)methanone] | 0.0001 to 0.1
Cc1nn(-c2cc(OC3CN(C(=O)N4N=CC[C@H]4c4cc(F)cc(F)c4)C3)c(F)cn2)c(C)c1C [compound 251, (S)-(5-(3,5-difluorophenyl)-4,5-dihydro-1H-pyrazol-1-yl)(3-((5-fluoro-2-(3,4,5-trimethyl-1H-pyrazol-1-yl)pyridin-4-yl)oxy)azetidin-1-yl)methanone] | 0.0001 to 0.1
Cc1nn(-c2cc(OC3CN(C(=O)N4N=CC[C@H]4c4cc(F)cc(F)c4)C3)c(F)cn2)c(C)c1C(=O)NO [compound 252, (S)-1-(4-((1-(5-(3,5-difluorophenyl)-4,5-dihydro-1H-pyrazole-1-carbonyl)azetidin-3-yl)oxy)-5-fluoropyridin-2-yl)-N-hydroxy-3,5-dimethyl-1H-pyrazole-4-carboxamide] | 0.0001 to 0.1
Cc1nn(-c2cc(OC3CN(C(=O)N4N=CC[C@H]4c4cc(F)cc(F)c4)C3)c(F)cn2)c(C)c1C(=O)NC#N [compound 253, (S)—N-cyano-1-(4-((1-(5-(3,5-difluorophenyl)-4,5-dihydro-1H-pyrazole-1-carbonyl)azetidin-3-yl)oxy)-5-fluoropyridin-2-yl)-3,5-dimethyl-1H-pyrazole-4-carboxamide] | 0.0001 to 0.1
Cc1nn(-c2cc(OC3CN(C(=O)N4N=CC[C@H]4c4cc(F)cc(F)c4)C3)c(F)cn2)c(C)c1C(=O)N[C@H]1C[C@@H](O)C1 [compound 254, 1-(4-((1-((S)-5-(3,5-difluorophenyl)-4,5-dihydro-1H-pyrazole-1-carbonyl)azetidin-3-yl)oxy)-5-fluoropyridin-2-yl)-N-((1s,3s)-3-hydroxycyclobutyl)-3,5-dimethyl-1H-pyrazole-4-carboxamide] | 0.0001 to 0.1
Cc1nn(-c2cc(OC3CN(C(=O)N4N=CC[C@H]4c4cc(F)cc(F)c4)C3)c(F)cn2)c(C)c1C(=O)N[C@H]1C[C@H](O)C1 [compound 255, 1-(4-((1-((S)-5-(3,5-difluorophenyl)-4,5-dihydro-1H-pyrazole-1-carbonyl)azetidin-3-yl)oxy)-5-fluoropyridin-2-yl)-N-((1r,3r)-3-hydroxycyclobutyl)-3,5-dimethyl-1H-pyrazole-4-carboxamide] | 0.0001 to 0.1
Cc1nn(-c2cc(OC3CN(C(=O)N4N=CC[C@H]4c4cc(F)cc(F)c4)C3)c(F)cn2)c(C)c1C(=O)NCCN(C)C [compound 256, (S)-1-(4-((1-(5-(3,5-difluorophenyl)-4,5-dihydro-1H-pyrazole-1-carbonyl)azetidin-3-yl)oxy)-5-fluoropyridin-2-yl)-N-(2-(dimethylamino)ethyl)-3,5-dimethyl-1H-pyrazole-4-carboxamide] | 0.0001 to 0.1
Cc1nn(-c2cc(OC3CN(C(=O)N4N=CC[C@H]4c4cc(F)cc(F)c4)C3)c(F)cn2)c(C)c1C(=O)N[C@H]1CCOC1 [compound 257, 1-(4-((1-((S)-5-(3,5-difluorophenyl)-4,5-dihydro-1H-pyrazole-1-carbonyl)azetidin-3-yl)oxy)-5-fluoropyridin-2-yl)-3,5-dimethyl-N—((S)-tetrahydrofuran-3-yl)-1H-pyrazole-4-carboxamide] | 0.0001 to 0.1
Cc1nn(-c2cc(OC3CN(C(=O)N4N=CC[C@H]4c4cc(F)cc(F)c4)C3)c(F)cn2)c(C)c1C(=O)N[C@@H]1CCOC1 [compound 258, 1-(4-((1-((S)-5-(3,5-difluorophenyl)-4,5-dihydro-1H-pyrazole-1-carbonyl)azetidin-3-yl)oxy)-5-fluoropyridin-2-yl)-3,5-dimethyl-N—((R)-tetrahydrofuran-3-yl)-1H-pyrazole-4-carboxamide] | 0.0001 to 0.1

From US12655125B2 (SIRONAX LTD., priority 2020, dated 2026)
